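Test compounds were applied to cells in 96-well plates for 48 hours at 5 doses. GI50 is the concentration that inhibits growth by half. At the TGI there is no net growth.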
Columns and labels:
Assay in all cases: DTP human tumour cell line panel, 48 h
A549 NSCLC = test system: A549 NSCLC
HOP-92 NSCLC = test system: HOP-92 NSCLC
M14 melanoma = test system: M14 melanoma
MOLT-4 leukemia = test system: MOLT-4 leukemia
SF-295 CNS = test system: SF-295 CNS
SK-OV-3 ovarian = test system: SK-OV-3 ovarian
SN12C renal = test system: SN12C renal
SNB-75 CNS = test system: SNB-75 CNS
OVCAR-5 ovarian = test system: OVCAR-5 ovarian
HS 578T breast = test system: HS 578T breast

Row | Structure (SMILES) | TGI (A549 NSCLC) [µM] | TGI (HOP-92 NSCLC) [µM] | TGI (M14 melanoma) [µM] | TGI (MOLT-4 leukemia) [µM] | TGI (SF-295 CNS) [µM] | TGI (SK-OV-3 ovarian) [µM] | TGI (SN12C renal) [µM] | TGI (SNB-75 CNS) [µM] | TGI (OVCAR-5 ovarian) [µM] | GI50 (A549 NSCLC) [µM] | GI50 (HS 578T breast) [µM] | TGI (HS 578T breast) [µM] | GI50 (M14 melanoma) [µM] | GI50 (MOLT-4 leukemia) [µM] | GI50 (OVCAR-5 ovarian) [µM] | GI50 (SF-295 CNS) [µM] | GI50 (SK-OV-3 ovarian) [µM] | GI50 (SN12C renal) [µM] | GI50 (SNB-75 CNS) [µM] | GI50 (HOP-92 NSCLC) [µM]
1 | CCOC1=C2C(=O)OC(=O)C2C2CCCCC2=C1 (stereo not given) | > 100 | > 100 | > 100 | > 100 | > 100 | > 100 | > 100 | > 100 |  |  |  |  |  |  |  |  |  |  |  | 
2 | Clc1ccc(N=Nc2nc3ccccc3nc2N=Nc2ccc(Cl)cc2Cl)c(Cl)c1 | > 100 | > 100 |  | > 100 | > 100 |  | > 100 | 93.4 |  |  |  |  |  |  |  |  |  |  |  | 
3 | Cc1cc2c(C)nn(Cc3ccccc3)c2c(C(N)=O)c1C | > 100 | > 100 | > 100 | > 100 | > 100 | > 100 | > 100 | 58.8 | > 100 |  |  |  |  |  |  |  |  |  |  | 
4 | c1ccc(C(c2ccccc2)c2cccnc2)cc1 | > 100 |  | > 100 |  | > 100 | > 100 | > 100 | > 100 | > 100 |  |  |  |  |  |  |  |  |  |  | 
5 | Cc1ccc(SSc2ccc(C)cc2C(=O)O)c(C(=O)O)c1 | > 100 | > 100 |  | > 100 | > 100 | > 100 | > 100 |  | > 100 |  |  |  |  |  |  |  |  |  |  | 
6 | CC1(N)CCN(c2cccnc2NC(=O)c2nc(-c3ncccc3C(F)(F)F)cnc2N)CC1 | > 100 |  | 80.3 | 69.7 | > 100 | 73.8 | > 100 | > 100 | > 100 | 22 | 38.5 | > 100 | 25.9 | 13.9 | 20 | 99.3 | 7.86 | 16.2 | 18.9 | 
7 | CCn1cc(C(=O)N/N=C/c2ccccc2)c(=O)c2cc(F)c(N3CCNC(C)C3)c(F)c21 (stereo not given) |  | 2.46 | 3.26 |  | 3.35 | 3.25 |  |  | 3.05 |  |  |  | 1.78 |  | 1.64 | 1.83 | 1.81 |  |  | 1.19
